# Results: patent US8211436B2, “Anticancer vaccine and diagnostic methods and reagents” (University of Pittsburgh—Of the Commonwealth System of …, priority 2001, dated 2012)
# Assays:
# [1] = tested on: K562; assay: CTL assay, peptide-sensitized T cells against K562 (LAK control); assay type: cell-based, human; settings: SCCHN Patient A T cells, target K562
# Description: (§1) Stimulating CD8^+ T cells from breast cancer and SCCHN patients with cyclin B1 peptides in vitro. PBMCs from cancer patients were X-irradiated at 3000 Rads, loaded with […] of the indicated peptides for 2-4 hours, and mixed with autologous PBMCs in the presence of 20 U/ml IL-2 (DuPont). The T cell cultures were fed every 3-4 days with 10 U/ml IL-2, and restimulated every 10-12 days, if necessary, using peptide-loaded autologous irradiated PBMCs. All T cell cultures were grown in RPMI medium (ICN, Costa Mesa, Calif.) supplemented with 10% human AB sera (Gemini Products, Calabasas, Calif.), L-glutamine, and penicillin/streptomycin (Life Technologies).
# (§2) Cytotoxicity assays. 1-2×10^6 target cells were labeled with 50 mCi of Na2^51CrO4 (Amersham, Arlington Heights, Ill.) for 90 minutes at 37° C. The labeled cells were then washed three times and plated at 1×10^3 cells/well in a 96-well V-bottom plate (Costar, Cambridge, Mass.) with various numbers of effector T cells. […] Supernatants were harvested using a Skatron harvesting press (Skatron Instruments, Sterling, Va.) and counted on a Cobra II series auto gamma counting system (Packard, Meriden, Conn.). […] Percent specific lysis was calculated from the following formula: % specific lysis=100×(experimental release−spontaneous release)/(maximum release−spontaneous release).
# [2] = tested on: MS-A2 tumor; assay: CTL assay, peptide-sensitized T cells against MS-A2; assay type: cell-based, human; parameters: killing of the original tumor by peptide-specific T cells: dose or concentration left out as unconfirmed
# Description: (§3) Priming naïve CD8^+ T cells from a healthy donor to cyclin B1 peptides in vitro. Naïve CD8^+ T cells and in vitro generated dendritic cells were purified as described above in Example 1. 2×10^4 dendritic cells were loaded overnight with […]/well peptide in 96-well U-bottom plates (Falcon, Franklin lakes, NJ) and mixed with 2×10^5 autologous naïve CD8^+ T cells the next day in the presence of 2 ng/ml IL-1b (R & D Systems, Minneapolis, Minn.), 20 U/ml IL-2 (DuPont, Wilmington, Del.), and 10 U/ml IL-4 (Schering Plough). Depending on growth kinetics, T cells were fed every 3-4 days with 10 U/ml IL-2 and 5 U/ml IL-4. T cells were restimulated every 7-10 days using peptide-loaded autologous macrophages.
# Stimulating CD8^+ T cells from breast cancer and SCCHN patients with cyclin B1 peptides in vitro. PBMCs from cancer patients were X-irradiated at 3000 Rads, loaded with […] of the indicated peptides for 2-4 hours, and mixed with autologous PBMCs in the presence of 20 U/ml IL-2 (DuPont). […]
# Cytotoxicity assays. […] Supernatants were harvested using a Skatron harvesting press (Skatron Instruments, Sterling, Va.) and counted on a Cobra II series auto gamma counting system (Packard, Meriden, Conn.). […] Percent specific lysis was calculated from the following formula: % specific lysis=100×(experimental release−spontaneous release)/(maximum release−spontaneous release).
# [3] = tested on: MS-A2/CD80 tumor; assay: CTL assay, peptide-sensitized T cells against MS-A2/CD80; assay type: cell-based, human; settings: SCCHN Patient A T cells, target MS-A2/CD80
# Description: as §1, §2
# [4] = tested on: PBMCs from HLA-A2+ breast cancer patients; assay: IFN-γ ELISPOT, PBMCs of breast cancer patients with cyclin B1 peptides; assay type: cell-based, human
# Description: (§4) IFN-γ ELISPOT Assays. IFN-g ELISPOT assays were conducted as previously described (Herr et al., J. Immunol. Methods, 191(2), 131-42 (1996)). Briefly, nitrocellulose plates (Millipore, Bedford, Mass.) were coated with the anti-IFN-γ capture mAb 1-D1K (MabTech, Stockholm, Sweden) overnight at 4° C. For assays using dendritic cells as APCs, DCs were loaded with […] of the indicated peptides for 2-6 hrs, and mixed with autologous T cells at a DC:T ratio of 1:10 for 20 hours at 37° C. For assays using autologous PBMCs as APCs, PBMCs were irradiated at 3000 Rads, loaded with […] of peptides for 4 hours, and mixed with autologous T cells at an APC:T ratio of 1:5 for 40 hours at 37° C. The T cells were seeded at 3×10^3-1×10^5 cells/well. All assays were done in serum-free AIM-V medium (Gibco Life Technologies, Grand Island, N.Y.). The plates were then washed in PBS+0.1% Tween and stained with anti-IFN-γ mAb 7-B6-1 (Mabtech) for 2 hours at 37° C. The plates were washed, and the avidin-peroxidase complex (Vectastain ABC Kit, Vector Laboratories) was added to the plates for 1 hour. The plates were then developed using AEC (Sigma) substrate, and spots were quantified microscopically with an inverted phase-contrast microscope (Carl Zeiss, Hallbergmoos, Germany) along with a computer-assisted image analysis system (KS ELISPOT). For HLA Class I blocking experiments, the W6/32 antibody was added to the APCs for 30-45 minutes prior to the incubation with the T cells.
# as §1
# [5] = tested on: PBMCs from HLA-A*0201 SCCHN patients; assay: IFN-γ ELISPOT, PBMCs of SCCHN patients with cyclin B1 peptides; assay type: cell-based, human; settings: for peptide-specific T cells, IFN-γ ELISPOT: SCCHN Patient A, absence of any in vitro stimulation; for HLA Class I-restricted T cell response, IFN-γ ELISPOT: SCCHN Patient B; for T cell response, IFN-γ ELISPOT: SCCHN Patient D; for blocking of the response with anti-Class I antibody: SCCHN Patient C
# Description: as §4, §1
# [6] = tested on: CD8+ T cells from an HLA-A*0201 healthy donor; assay: IFN-γ ELISPOT, naive CD8+ T cells of a healthy donor primed in vitro to synthetic cyclin B1 peptides; assay type: cell-based, human; settings: for antigen-specific IFN-γ secretion by CD8+ T cells: healthy HLA-A2.1+ donor, after several rounds of restimulation (fourth)
# Description: as §4, §3
# [7] = molecular target: T1, HLA-A2.1 (Homo sapiens, UniProt P04439, D140Y/D185E/D98H/E176V/E277Q/G131W/G231S/I119V/I121R/I166T/I218V/L300P/L318F/N151K/N90K/P208A/P217A/Q86G/Q94H/R138H/R169H/T345S); assay: HLA Class I stabilization assay on T2 cells; settings: 20 mg/ml peptide, 18-20 hours, MA2.1 staining, >1 indicates binding
# T1 construct: Peptide-induced stabilization of HLA-A2.1 molecules on T2 cells; endogenous in cells; host or cells: T2 cells
# Description: HLA Class I stabilization assays. Peptide-induced stabilization of HLA-A2.1 molecules on T2 cells was done as previously described (Zeh et al., Hum. Immunol., 39(2), 79-86 (1994)). 2×10^5 T2 cells were incubated with […] of the indicated synthetic peptides in […] human B2m (Calbiochem, La Jolla, Calif.) for 18-20 hours at room temperature. The cells were then stained with the HLA-A2.1-specific antibody, MA2.1, for 45 minutes, washed with FACS Buffer (PBS, 5% FBS, and 0.01% sodium azide), and stained with a secondary FITC-conjugated anti-IgG antibody (Biosource International, Camarillo, Calif.). The cells were fixed in 4% formaldehyde prior to flow cytometry analysis. The negative control consisted of T2 cells without peptide. […] (SEQ ID NO:11). Flow cytometric analysis was done using a FACScan flow cytometer (Becton-Dickinson).
# [8] = breast cancer Patient A, one in vitro stimulation
# [9] = breast cancer Patient C, no in vitro stimulation
# [10] = breast cancer Patient D, no in vitro stimulation
sequence,measurement,setting,value
"AGYLMELCC (cyclin-derived polypeptide) [SEQ ID NO:4, tumor-derived cyclin B1 9-mer peptide]",lysis by T cells sensitized to the peptide,[1],not
same,lysis of tumor by T cells sensitized to the peptide,"[2]; SCCHN Patient A T cells, target MS-A2",to a lesser extent
same,killing of the original tumor by peptide-specific T cells,[2]; healthy donor T cells primed with high peptide concentration,unable to kill the original tumor
same,lysis of tumor by T cells sensitized to the peptide,[3],able to lyse
same,"T cell response, IFN-γ ELISPOT",[4]; [8],strong HLA Class I-restricted secondary T cell responses
same,"T cell response, IFN-γ ELISPOT",[4]; [9],peptide-specific HLA Class I-restricted T cell responses
same,"T cell response, IFN-γ ELISPOT",[4]; [10],strong HLA Class I-restricted T cell responses
same,"T cell response, IFN-γ ELISPOT",[4]; breast cancer Patients E and F,did not respond
same,"peptide-specific T cells, IFN-γ ELISPOT",[5],peptide-specific T cells also were detected
same,"HLA Class I-restricted T cell response, IFN-γ ELISPOT",[5],HLA Class I-restricted T cell responses
same,"T cell response, IFN-γ ELISPOT",[5],appeared specific
same,antigen-specific IFN-γ secretion by CD8+ T cells,[6],detected
same,blocking of the T cell response by anti-Class I antibody W6/32,[6]; healthy donor,blocked
same,HLA-A2.1 Binding (MFI of T2 cells loaded with peptide / MFI of T2 cells with no peptide),[7],1.61 X-Fold increase
"AGYLMELCF (cyclin-derived polypeptide) [SEQ ID NO:3, tumor-derived cyclin B1 9-mer peptide]","HLA Class I-restricted T cell response, IFN-γ ELISPOT",[5],HLA Class I-restricted T cell responses
same,HLA-A2.1 Binding (MFI of T2 cells loaded with peptide / MFI of T2 cells with no peptide),[7],1.42 X-Fold increase
"AGYLMELCFA (cyclin-derived polypeptide) [SEQ ID NO:6, tumor-derived cyclin B1 10-mer peptide]",antigen-specific IFN-γ secretion by CD8+ T cells,[6],not
same,HLA-A2.1 Binding (MFI of T2 cells loaded with peptide / MFI of T2 cells with no peptide),[7],2.08 X-Fold increase
"AGYLMELCM (cyclin-derived polypeptide) [SEQ ID NO:2, tumor-derived cyclin B1 9-mer peptide]","HLA Class I-restricted T cell response, IFN-γ ELISPOT",[5],not
same,blocking of the response with anti-Class I antibody,[5],could be blocked
same,antigen-specific IFN-γ secretion by CD8+ T cells,[6],not
same,HLA-A2.1 Binding (MFI of T2 cells loaded with peptide / MFI of T2 cells with no peptide),[7],1.48 X-Fold increase
"AGYLMELCMA (cyclin-derived polypeptide) [SEQ ID NO:5, tumor-derived cyclin B1 10-mer peptide]","T cell response, IFN-γ ELISPOT",[5],appeared specific
same,antigen-specific IFN-γ secretion by CD8+ T cells,[6],not
same,HLA-A2.1 Binding (MFI of T2 cells loaded with peptide / MFI of T2 cells with no peptide),[7],1.58 X-Fold increase
"AGYLMELCV (cyclin-derived polypeptide) [SEQ ID NO:1, tumor-derived cyclin B1 9-mer peptide]","T cell response, IFN-γ ELISPOT","[4]; breast cancer Patient B (HLA-A*0206), two in vitro stimulations",weak secondary response
same,"HLA Class I-restricted T cell response, IFN-γ ELISPOT",[5],not
same,antigen-specific IFN-γ secretion by CD8+ T cells,[6],not
same,HLA-A2.1 Binding (MFI of T2 cells loaded with peptide / MFI of T2 cells with no peptide),[7],1.60 X-Fold increase
"AKYLMELTM (cyclin-derived polypeptide) [SEQ ID NO:7, human (HeLa) cyclin B1 peptide from the database]",lysis of tumor by T cells sensitized to the peptide,[3],able to lyse
same,"T cell response, IFN-γ ELISPOT",[4]; [8],strong HLA Class I-restricted secondary T cell responses
same,"T cell response, IFN-γ ELISPOT",[4]; [9],peptide-specific HLA Class I-restricted T cell responses
same,blocking of the response by anti-MHC Class I antibody,[4]; breast cancer Patient D,blocked
same,"T cell response, IFN-γ ELISPOT",[4]; [10],lower responses
same,"T cell response, IFN-γ ELISPOT",[4]; breast cancer Patients E and F,did not respond
same,"peptide-specific T cells, IFN-γ ELISPOT",[5],peptide-specific T cells also were detected
same,"HLA Class I-restricted T cell response, IFN-γ ELISPOT",[5],HLA Class I-restricted T cell responses
same,"T cell response, IFN-γ ELISPOT",[5],appeared specific
same,HLA-A2.1 Binding (MFI of T2 cells loaded with peptide / MFI of T2 cells with no peptide),[7],2.28 X-Fold increase
"AKYLMELTML (cyclin-derived polypeptide) [SEQ ID NO:8, human (HeLa) cyclin B1 peptide from the database]","T cell response, IFN-γ ELISPOT",[4]; [8],strong HLA Class I-restricted secondary T cell responses
same,blocking of the response with anti-Class I antibody,[5],could be blocked
same,HLA-A2.1 Binding (MFI of T2 cells loaded with peptide / MFI of T2 cells with no peptide),[7],2.25 X-Fold increase
ILKEPGSHV (HIV-POL-derived polypeptide) [reference compound],"T cell response, IFN-γ ELISPOT",[4]; [8],no recognition
same,"T cell response, IFN-γ ELISPOT",[4]; [10],lower responses
same,antigen-specific IFN-γ secretion by CD8+ T cells,[6],not
